Reference: US4450269A, “Mono-5-substituted-3-chloro-4H-1,2,6-thiadiazin-4-one antifungal agents” (FMC Corporation, priority 1980, dated 1984)
Where a name gives a salt, the structure may show the parent alone.

Tests used:
Cladosporium cucumerinum = assay: Mycelial growth test; assay type: cell-based; conditions: CC; for inhibition at 5 ppm / inhibition at 10 ppm / inhibition at 40 ppm / inhibition at 20 ppm: Cladosporium cucumerinum, read-out: Percent Fungus Growth Inhibition; for inhibition at 5 ppm / inhibition at 10 ppm / inhibition at 40 ppm: 72 h; for inhibition at 20 ppm: CC20, 72 h; for Percent Fungus Growth Inhibition: 72 hours
Excerpt: |CC = Cladosporium cucumerinum

Uromyces phaseoli = assay: whole plant or invertebrate; conditions: foliar, 24 h, read-out: Percent Disease Control, curative, bean rust

Compound | inhibition at 5 ppm (Cladosporium cucumerinum; 5 ppm) | inhibition at 10 ppm (Cladosporium cucumerinum; 10 ppm) | inhibition at 40 ppm (Cladosporium cucumerinum; 40 ppm) | inhibition at 20 ppm (Cladosporium cucumerinum; 20 ppm) | pest or weed control at 150 ppm (Uromyces phaseoli) | Percent Fungus Growth Inhibition (Cladosporium cucumerinum; 5 ppm, hydrochloride) | Percent Fungus Growth Inhibition (Cladosporium cucumerinum; 10 ppm, hydrochloride) | Percent Fungus Growth Inhibition (Cladosporium cucumerinum; 40 ppm, hydrochloride) | Percent Fungus Growth Inhibition (Cladosporium cucumerinum; 5 ppm) | Percent Fungus Growth Inhibition (Cladosporium cucumerinum; 10 ppm) | Percent Fungus Growth Inhibition (Cladosporium cucumerinum; 20 ppm) | Percent Fungus Growth Inhibition (Cladosporium cucumerinum; 40 ppm)
O=c1c(Cl)nsnc1Oc1cccc(C(F)(F)F)c1 [Compound 44, 3-chloro-5-[(3-trifluoromethyl)phenoxy]-4H--1,2,6-thiadiazin-4-one] | 36% | 56% | 100% | 92% | 0% | – | – | – | – | – | – | –
C[S+]([O-])c1ccc(Oc2nsnc(Cl)c2=O)cc1 (stereo not shown) [Compound 40, 3-chloro-5-[(4-methylsulfinyl)phenoxy]-4H-1,2,6,-thiadiazin-4-one] | 0% | 48% | 48% | 32% | 0% | – | – | – | – | – | – | –
Cc1ccc(Oc2nsnc(Cl)c2=O)c(C)c1 [Compound 23, 3-chloro-5-(2,4-dimethylphenoxy)-4H--1,2,6-thiadiazin-4-one] | 27% | 38% | 100% | 81% | 0% | – | – | – | – | – | – | –
CSc1ccc(Oc2nsnc(Cl)c2=O)cc1 [Compound 39, 3-chloro-5-[(4-methylthio)phenoxy]-4H-1,2,6,-thiadiazin-4-one] | 16% | 16% | 32% | 23% | 0% | – | – | – | – | – | – | –
CC(=O)Nc1cccc(Oc2nsnc(Cl)c2=O)c1 [Compound 42, 3-[(3-N--acetylamino)-phenoxy]-5-chloro-4H--1,2,6-thiadiazin-4-one] | 14% | 22% | 18% | 14% | 0% | – | – | – | – | – | – | –
COc1cc(Cl)cc(Oc2nsnc(Cl)c2=O)c1 [Compound 52, 3-chloro-5-[(3-chloro-5-methoxy)phenoxy]-4H--1,2,6-thiadiazin-4-one] | 15% | 46% | 77% | 88% | 0% | – | – | – | – | – | – | –
N#Cc1ccc(Oc2nsnc(Cl)c2=O)cc1 [Compound 10, 3-chloro-5-(4-cyanophenoxy)-4H--1,2,6-thiadiazin-4-one] | 9% | 45% | 100% | 100% | 0% | – | – | – | – | – | – | –
O=c1c(Cl)nsnc1Oc1ccccc1Br [Compound 34, 3-chloro-5-(2-bromophenoxy)-4H-1,2,6,-thiadiazin-4-one] | 6% | 28% | 86% | 61% | 0% | – | – | – | – | – | – | –
Cc1cc(Oc2nsnc(Cl)c2=O)cc(C)c1Cl [Compound 59, 3-chloro-5-[(4-chloro-3,5-dimethyl)phenoxy]-4H--1,2,6-thiadiazin-4-one] | 28% | 42% | 61% | 47% | 0% | – | – | – | – | – | – | –
Cc1cc(C)cc(Oc2nsnc(Cl)c2=O)c1 [Compound 25, 3-chloro-5-(3,5-dimethylphenoxy)-4H--1,2,6-thiadiazin-4-one] | 27% | 50% | 100% | 77% | 0% | – | – | – | – | – | – | –
O=c1c(Cl)nsnc1Oc1c(Cl)c(Cl)c(Cl)c(Cl)c1Cl [Compound 31, 3-chloro-5-(pentachlorophenoxy)-4H--1,2,6-thiadiazine-4-one] | 54% | 57% | 69% | 60% | 0% | – | – | – | – | – | – | –
Nc1ccc(Oc2nsnc(Cl)c2=O)cc1 [Compound 27, 5-(4-aminophenoxy)-3-chloro-4H--1,2,6-thiadiazine-4-one hydrochloride] | – | – | – | – | – | 31% | 40% | 54% | – | – | – | –
COc1cc(Oc2nsnc(Cl)c2=O)cc(OC)c1C(C)=O [Compound 61, 3-[(4-acetyl-3,5-dimethoxy)-phenoxy]-5-chloro-4H--1,2,6-thiadiazin-4-one] | 6% | 23% | 52% | 32% | 0% | – | – | – | – | – | – | –
O=c1c(Cl)nsnc1Oc1cccc2ccccc12 [Compound 32, 3-chloro-5(1-naphthoxy)-4H-1,2,6-thiadiazin-4-one] | 35% | 46% | 100% | 69% | 0% | – | – | – | – | – | – | –
Cc1ccc(Oc2nsnc(Cl)c2=O)cc1 [Compound 3, 3-chloro-5-(4-methylphenoxy)-4H--1,2,6-thiadiazin-4-one] | 58% | 67% | 100% | 100% | 0% | – | – | – | – | – | – | –
O=c1c(Cl)nsnc1Oc1c(Cl)cc(Cl)cc1Cl [Compound 30, 3-chloro-5-(2,4,6-trichlorophenoxy)-4H--1,2,6-thiadiazin-4-one] | 75% | 100% | 100% | 100% | 0% | – | – | – | – | – | – | –
O=c1c(Cl)nsnc1Oc1ccc(Cl)c(Cl)c1 [Compound 16, 3-chloro-5-(3,4-dichlorophenoxy)-4H--1,2,6-thiadiazin-4-one] | 58% | 54% | 75% | 67% | 0% | – | – | – | – | – | – | –
CC(C)(C)c1ccc(Oc2nsnc(Cl)c2=O)cc1 [Compound 4, 3-chloro-5-(4-tert-butylphnoxy)-4H--1,2,6-thiadiazin-4-one] | 0% | 9% | 45% | 27% | 75% | – | – | – | – | – | – | –

Compound | inhibition at 5 ppm (Cladosporium cucumerinum; 5 ppm) | inhibition at 10 ppm (Cladosporium cucumerinum; 10 ppm) | inhibition at 40 ppm (Cladosporium cucumerinum; 40 ppm) | inhibition at 20 ppm (Cladosporium cucumerinum; 20 ppm) | pest or weed control at 150 ppm (Uromyces phaseoli) | Percent Fungus Growth Inhibition (Cladosporium cucumerinum; 5 ppm, hydrochloride) | Percent Fungus Growth Inhibition (Cladosporium cucumerinum; 10 ppm, hydrochloride) | Percent Fungus Growth Inhibition (Cladosporium cucumerinum; 40 ppm, hydrochloride) | Percent Fungus Growth Inhibition (Cladosporium cucumerinum; 5 ppm) | Percent Fungus Growth Inhibition (Cladosporium cucumerinum; 10 ppm) | Percent Fungus Growth Inhibition (Cladosporium cucumerinum; 20 ppm) | Percent Fungus Growth Inhibition (Cladosporium cucumerinum; 40 ppm)
COc1ccc(Cl)c(Oc2nsnc(Cl)c2=O)c1 [Compound 51, 3-chloro-5-[(2-chloro-5-methoxy)phenoxy]-4H--1,2,6-thiadiazin-4-one] | 8% | 26% | 100% | 85% | 0% | – | – | – | – | – | – | –
COc1ccc(Oc2nsnc(Cl)c2=O)cc1 [Compound 5, 3-chloro-5-(4-methoxyphenoxy)4H--1,2,6-thiadiazin-4-one] | 50% | 75% | 100% | 100% | 0% | – | – | – | – | – | – | –
O=c1c(Cl)nsnc1Oc1ccccc1Cl [Compound 14, 3-chloro-5-(2-chlorophenoxy)-4H--1,2,6-thiadiazin-4-one] | 67% | 50% | 100% | 100% | 100% | – | – | – | – | – | – | –
CC(=O)Nc1ccccc1Oc1nsnc(Cl)c1=O [Compound 43, 3-[(2-acetylamino)-phenoxy]-5-chloro-4H--1,2,6-thiadiazin-4-one] | 0% | 0% | 17% | 6% | 0% | – | – | – | – | – | – | –
O=c1c(Cl)nsnc1Oc1c(Cl)cccc1Cl [Compound 18, 3-chloro-5-(2,6-dichlorophenoxy)-4H--1,2,6-thiadiazin-4-one] | 83% | 100% | 100% | 100% | 0% | – | – | – | – | – | – | –
O=C(O)Cc1ccccc1Oc1nsnc(Cl)c1=O [Compound 45, 3-(2-carboxymethylphenoxy)-5-chloro-4H--1,2,6-thiadiazin-4-one] | 0% | 0% | 0% | 12% | 0% | – | – | – | – | – | – | –
O=c1c(Cl)nsnc1Oc1cccc(Cl)c1 [Compound 13, 3-chloro-5-(3-chlorophenoxy)-4H--1,2,6-thiadiazin-4-one] | 58% | 67% | 100% | 100% | 90% | – | – | – | – | – | – | –
O=C(O)c1ccc(Oc2nsnc(Cl)c2=O)cc1 [Compound 50, 3-(4-carboxyphenoxy)-5-chloro-4H--1,2,6-thiadiazin-4-one] | 58% | 54% | 100% | 73% | 0% | – | – | – | – | – | – | –
CC(=O)Nc1ccc(Oc2nsnc(Cl)c2=O)cc1 [Compound 8, 5-(4-acetylaminophenoxy)-3-chloro-4H--1,2,6-thiadiazin-4-one] | 50% | 58% | 100% | 67% | 0% | – | – | – | – | – | – | –
Cc1cc(Cl)c(Oc2nsnc(Cl)c2=O)cc1C [Compound 58, 3-chloro-5-[(2-chloro-4,5-dimethyl)phenoxy]-4H--1,2,6-thiadiazin-4-one] | 44% | 44% | 61% | 42% | 0% | – | – | – | – | – | – | –
N#CCc1ccc(Oc2nsnc(Cl)c2=O)cc1 [Compound 46, 3-chloro-5-[(4-cyanomethyl)-phenoxy]4H--1,2,6-thiadiazin-4-one] | 0% | 0% | 100% | 46% | 0% | – | – | – | – | – | – | –
O=c1c(Cl)nsnc1Oc1ccc(Cl)cc1 [Compound 12, 3-chloro-5-(4-chlorophenoxy)-4H--1,2,6-thiadiazin-4-one] | 63% | 58% | 100% | 71% | 0% | – | – | – | – | – | – | –
CNC(=O)Nc1ccc(Oc2nsnc(Cl)c2=O)cc1 [Compound 28, 3-chloro-5-[4-(3-methylureido)-phenoxy]-4H--1,2,6-thiadiazin-4-one] | 14% | 26% | 60% | 26% | 0% | – | – | – | – | – | – | –
CC(=O)c1cccc(Oc2nsnc(Cl)c2=O)c1 [Compound 48, 3-(3-acetylphenoxy)-5-chloro-4H--1,2,6-thiadiazin-4-one] | 29% | 33% | 100% | 50% | 0% | – | – | – | – | – | – | –
O=c1c(Cl)nsnc1Oc1ccccc1 [Compound 2, 3-chloro-5-phenoxy-4H--1,2,6-thiadiazin-4-one] | 46% | 58% | 100% | 100% | 0% | – | – | – | – | – | – | –
Cc1ccccc1Oc1nsnc(Cl)c1=O [Compound 22, 3-chloro-5-(2-methylphenoxy)-4H--1,2,6-thiadiazin-4-one] | 31% | 46% | 92% | 69% | 0% | – | – | – | – | – | – | –
3-chloro-5-(bromophenoxy)-4H-1,2,6-thiadiazin-4-one [Compound 33] | – | – | – | – | – | – | – | – | 11% | 28% | 61% | 83%
